target: T1, Or69aB (Drosophila melanogaster, UniProt P82985); experiment: single sensillum recording, empty ab3A neuron; format: cell-based; settings: 10 ug on filter paper, 0.5 s puff; activation (agonist)
T1 construct: gene Or69a; full ORF cloned from antennal cDNA into pUAS.g-HA.attB; expressed in Dhalo ab3A empty neurons (Or22a-Gal4), endogenous Orco; with Odorant receptor coreceptor
T1 sequence (P82985 1-393): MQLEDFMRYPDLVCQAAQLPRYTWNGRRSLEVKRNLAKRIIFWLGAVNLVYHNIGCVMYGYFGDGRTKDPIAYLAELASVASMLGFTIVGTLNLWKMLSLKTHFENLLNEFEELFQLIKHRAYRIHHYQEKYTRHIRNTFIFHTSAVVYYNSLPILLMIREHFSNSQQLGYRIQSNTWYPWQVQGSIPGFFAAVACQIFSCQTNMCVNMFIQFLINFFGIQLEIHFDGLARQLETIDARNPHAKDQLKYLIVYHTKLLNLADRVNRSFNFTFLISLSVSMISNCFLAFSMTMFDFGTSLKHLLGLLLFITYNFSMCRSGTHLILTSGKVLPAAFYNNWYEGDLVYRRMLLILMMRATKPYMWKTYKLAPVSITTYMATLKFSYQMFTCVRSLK
T1 sequence (Q9VNB5 1-486 partner): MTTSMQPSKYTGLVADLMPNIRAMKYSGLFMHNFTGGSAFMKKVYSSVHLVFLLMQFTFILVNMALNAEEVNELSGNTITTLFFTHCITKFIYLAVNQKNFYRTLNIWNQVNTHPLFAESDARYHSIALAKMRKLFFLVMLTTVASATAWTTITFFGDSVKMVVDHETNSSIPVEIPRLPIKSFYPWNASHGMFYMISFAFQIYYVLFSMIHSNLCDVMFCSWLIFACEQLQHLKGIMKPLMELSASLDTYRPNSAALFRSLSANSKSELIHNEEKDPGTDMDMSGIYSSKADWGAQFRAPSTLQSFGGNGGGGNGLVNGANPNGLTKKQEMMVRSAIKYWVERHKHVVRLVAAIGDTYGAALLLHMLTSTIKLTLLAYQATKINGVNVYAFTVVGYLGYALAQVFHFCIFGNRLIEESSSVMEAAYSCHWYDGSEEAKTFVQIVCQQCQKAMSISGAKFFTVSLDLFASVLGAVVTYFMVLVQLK

Q: For CCCCCC/C=C\CCC=O [compound 10, (Z)-4-undecenal], which “SSR response (spikes/s)” value is on record?
A: Or69aB responds best to both isomers of carvone, followed by Z4-11Al

Q: With C=C(C)[C@H]1CC=C(C)C(=O)C1 [(S)-carvone] as the compound, how does the “SSR response (spikes/s)” value read?
A: Or69aB responds best to both isomers of carvone

Q: With C=C(C)[C@@H]1CC=C(C)C(=O)C1 [compound 8, (R)-carvone] as the compound, how does the “SSR response (spikes/s)” value read?
A: (R)-carvone, which elicited the strongest Or69aB response

target: T2, Or69aA (Drosophila melanogaster, UniProt Q9VU27); experiment: single sensillum recording, empty ab3A neuron; format: cell-based; settings: 10 ug on filter paper, 0.5 s puff; activation (agonist)
T2 construct: gene Or69a; full ORF cloned from antennal cDNA into pUAS.g-HA.attB; expressed in Dhalo ab3A empty neurons (Or22a-Gal4), endogenous Orco; with Odorant receptor coreceptor
T2 sequence (Q9VU27 1-393): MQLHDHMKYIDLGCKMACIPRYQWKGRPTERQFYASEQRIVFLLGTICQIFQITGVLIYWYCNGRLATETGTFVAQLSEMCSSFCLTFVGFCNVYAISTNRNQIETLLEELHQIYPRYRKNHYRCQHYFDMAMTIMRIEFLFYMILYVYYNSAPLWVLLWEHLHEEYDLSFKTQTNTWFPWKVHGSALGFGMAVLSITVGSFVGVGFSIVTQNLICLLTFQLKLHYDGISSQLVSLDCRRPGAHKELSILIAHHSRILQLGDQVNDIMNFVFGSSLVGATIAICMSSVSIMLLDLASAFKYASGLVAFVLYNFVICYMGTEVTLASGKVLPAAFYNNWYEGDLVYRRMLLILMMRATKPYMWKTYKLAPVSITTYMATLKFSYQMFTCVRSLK
T2 sequence (Q9VNB5 1-486 partner): T1 sequence (Q9VNB5 1-486 partner)

Q: C=C[C@](C)(O)CCC=C(C)C [compound 4, (R)-linalool] was tested. Which “SSR response (spikes/s)” value did it give?
A: The most active ligands (S)-α-terpineol and (S)- and (R)-linalool

Q: C=C[C@@](C)(O)CCC=C(C)C [(S)-linalool] was tested. Which “SSR response (spikes/s)” value did it give?
A: The most active ligands (S)-α-terpineol and (S)- and (R)-linalool

Q: With CC1=CC[C@@H](C(C)(C)O)CC1 [compound 1, (S)-α-terpineol] as the compound, how does the “SSR response (spikes/s)” value read?
A: The most active ligands (S)-α-terpineol and (S)- and (R)-linalool

From publication PMC5622430, “A Drosophila female pheromone elicits species-specific long-range attraction via an olfactory channel with dual specificity for sex and food” (BMC Biology, 2017)
